Results from US20170014468A1, “METHODS OF USE FOR THERAPEUTICS TARGETING THE PATHOGEN PORPHYROMONAS GINGIVALIS” (Cortexyme, Inc., priority 2014, published 2017).
“Also recorded” adds a separate entry of the source.

What was measured:
P. gingivalis = conditions: cited from earlier work
Rgp = conditions: cited from earlier work
[1] = test system: differentiated SH-SY5Y neuronal cells exposed to Kgp and/or RgpB; assay: gingipain induced toxicity in differentiated SH-SY5Y neuronal cells; format: cell-based; conditions: 100 nM Kgp and/or RgpB, 24 hours, microscopy
Method: SH-SY5Y neuroblastoma cells were cultured and differentiated in the presence of 5 uM retinoic acid based on established methods. Differentiation into neuronal cells was verified by observation of neurite outgrowth. The differentiated cells were exposed to 100 nM Kgp and/or RgpB for 24 hours, in the presence or absence of gingipain inhibitors. Results were recorded using a digital microscope camera.

## phenylalanyl-ureido-citrullinyl-valyl-cycloarginal [FA-70C1]
P. gingivalis
  growth inhibition of P. gingivalis: exhibits growth-inhibitory activity
Rgp
  Rgp inhibition: potent Rgp inhibitor

## CC(C)C[C@H](NC(=O)[C@@H](O)[C@H](N)Cc1ccccc1)C(=O)O [bestatin]
P. gingivalis
  growth inhibition of P. gingivalis: selectively inhibits growth

## CN(C)C(=O)[C@H](CCCCN)NC(=O)C(=O)[C@H](CCCN=C(N)N)NC(=O)[C@H](CCCCN)NC(=O)OCc1ccccc1 [Kyt-1]
[1]
  protection against gingipain induced toxicity / cell death: can protect neurons; also recorded: effective but less so

## NC(=O)CI [iodoacetamide]
[1]
  protection against gingipain induced toxicity / cell death: blocks toxicity
[1]; listed as Iodoacetamide
  protection against gingipain induced toxicity / cell death: prevents this effect

## CN(NC(=O)CC[C@H](NC(=O)OCc1ccccc1)C(=O)N[C@@H](CCCCN)C(=O)C(=O)NCc1ccccc1)c1ccccc1 [Kyt-36]
[1]
  protection against gingipain induced toxicity / cell death: can protect neurons; also recorded: more protective than Rgp inhibitors; also recorded: largely blocks gingipain induced toxicity
[1]; listed as Kyt 36
  protection against gingipain induced toxicity / cell death: prevented gingipain induced neurodegeneration
